Data as given in patent publication US12239643B2, “Therapeutic agent for inflammatory diseases, autoimmune diseases, fibrotic diseases, and cancer diseases” (MEIJI SEIKA PHARMA CO., LTD., priority 2018, dated 2025).
Read-outs that look alike come from different tables or passages of the source.

Assays:
TGF-β = TGF-β inhibitory activity using THP1 cells differentiated into macrophages; assay type: cell-based; details: Homo sapiens, THP-1; THP1 cells differentiated into macrophages, lipopolysaccharide 1 μg/mL, about 7 hours; read-out: TFG-β Inhibitory Activity (Test Example 6)
Method: The TGF-β inhibitory activity was measured using THP1 cells as follows. First, THP1 cells were seeded on a 24-well culture plate at […], and culture was carried out overnight at 37° C. and 5% CO2 in RPMI-1640 medium (containing 10% fetal bovine serum, penicillin, and streptomycin) supplemented with 100 nM phorbol myristate acetate. After that, the cells were differentiated into macrophages by changing to RPMI-1640 medium without phorbol myristate acetate, followed by further culture at 37° C. under 5% CO2 overnight. Next, the THP1 culture plate was washed once with PBS(−) 1 mL/well, and then the test compound and lipopolysaccharide (final concentration 1 μg/mL) were added, followed by culture at 37° C. under 5% CO2 for about 7 hours. After culturing, the entire amount of the medium was collected, and the amount of TGF-β in the centrifuged supernatant was quantified by the sandwich ELISA method. The non-addition of lipopolysaccharide was used as a blank, and the control was obtained by adding only dimethyl sulfoxide instead of the test compound, and the inhibition rate of the test compound against the control was calculated by the following formula. Inhibition Rate (%)={1−(Value at Addition of Each Test Compound−Blank Value)/(Control Value−Blank Value)}×100
In addition, the TGF-β inhibitory activity (concentration for the inhibition rate of 50%) of the test compound was calculated from the inhibition curves based on the inhibition rate for various concentrations of the test compound.
The measurement results obtained by measuring the TFG-β inhibitory activity (50% inhibitory concentration) of the test compounds by the above method were evaluated in accordance with the following evaluated basis; A: less than 1 μM, and B: 1 μM or more.

[1] = Hepatic metabolic stability (rat liver microsome method); assay type: in vitro ADME; details: rat liver microsomes 0.5 mg/mL, test substance 1 μM, NADPH 1 mM, 37° C., 30 minutes
In short: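 Rat liver microsomes (0.5 mg/mL final) with test compound (1 μM final) in 100 mM potassium phosphate pH 7.4, 37° C; reaction started with NADPH (1 mM final) after 5 min preincubation. Acetonitrile stop at 0 and 30 min, LC-MS quantitation; % remaining = 30 min/0 min ×100, graded A ≥75%, B 60–<75%, C 45–<60%, D <45%.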

PDE4 = assay: Evaluation of PDE4 inhibitory activity, scintillation proximity assay; assay type: biochemical; details: for PDE4 inhibitory activity: summary in words of Tables 57 to 69
In short: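 SPA with [2,8-3H]-cAMP and diluted PDE4 enzyme preparation in 50 mM Tris-HCl pH 7.4, 8.3 mM MgCl2, 1.7 mM EGTA, 3 mg/mL BSA, 120 min at room temperature. Product captured on ZnSO4-containing YSi-SPA beads, scintillation counted; IC50 from inhibition curves vs DMSO control and no-enzyme blank.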

[2] = system: oxazolone-induced auricle edema, BALB/c mice; assay: Hapten repeated application mouse chronic dermatitis model (oral, topical); assay type: in vivo; details: oral, 0.3 to 10 mg/kg twice a day for 10 days
Method: Evaluation was carried out using female BALB/c mice (7 to 8 weeks of age). First, the hair of the abdomen of the mice was treated with a hair clipper, and then 150 μL of a 3% oxazolone acetone/ethanol solution was applied to the abdomen as a hapten. One week later, 20 μL/ear of 1% oxazolone acetone/ethanol solution was applied to the outer surface of the auricle of both ears of the mice 3 times/week to induce inflammation. A 1% oxazolone-acetone/ethanol solution was applied every other day for 10 days from 1 week after the start of inflammation induction. In addition, for 10 days from 1 week after the start of inflammation induction, the test compound suspended in 0.5% w/v methylcellulose (0.5% MC) was orally administered at 0.3 to 10 mg/kg twice a day (10 μL/g), or 20 μL of a 0.3 to 3% test compound dissolved in an acetone/ethanol solution was applied once or twice a day (topical administration). A 1% oxazolone was not applied to the blank. The control was one in which 1% oxazolone was applied and only 0.5% MC was orally administered without using the test compound, or only an acetone/ethanol solution was applied.
After administration for 10 days, auricle thickness was measured using a dial thickness gauge, and the changes in auricular thickness before the treatment (immediately before the start of administration of the test compound) and after the treatment (after the administration of the test compound for 10 days) were used to calculate the edema suppression rate by the following formula. Edema Suppression Rate (%)={1−(Auricle Thickness After Treatment by Test Compound−Auricle Thickness Before Treatment by Test Compound)/(Auricle Thickness After Treatment of Control−Auricle Thickness Before Treatment of Control)}×100
The measurement results obtained by measuring the edema suppression rate at the time of oral administration of each test compound by the above method were evaluated in accordance with the following evaluated basis; A: 70% or more, B: 40% or more and less than 70%, and C: less than 40%. In addition, the measurement results obtained by measuring the edema suppression rate at the time of topical administration of each test compound were evaluated in accordance with the following evaluated basis; A: 100% or more, B: 70% or more and less than 100%, and C: less than 70%.

[3] = finer grading of compounds rated A in Evaluation 1, read-out: PDE4 Inhibitory Activity (Evaluation 2)
[4] = scintillation proximity assay, class symbols of Evaluation 1, read-out: PDE4 Inhibitory Activity (concentration for the inhibition rate of 50%, IC50), Evaluation 1
[5] = scintillation proximity assay, read-out: PDE4 Inhibitory Activity (Evaluation 1; concentration for the inhibition rate of 50%)

Structure (SMILES) | IC50 (TGF-β) [nM] | Residual ratio (% remaining for 30-minute reaction) [1] | IC50 (PDE4; [3]) [nM] | IC50 (PDE4; [4]) [nM] | PDE4 inhibitory activity (PDE4) | Mouse Chronic Dermatitis Model (Test Example 8), Oral: edema suppression rate [2] | IC50 (PDE4; [5]) [nM]
FC(F)(F)Oc1c(Cl)cc(-c2nccs2)c2oc(N3CC4CC(C3)N4)nc12 [Example 3, 2-(3,6-Diazabicyclo[3.1.1]heptan-3-yl)-5-chloro-7-(thiazol-2-yl)-4-(trifluoromethoxy)benzo[d]oxazole] | < 1000 | B (B: 60% or more and less than 75%) | ≤ 1 | < 100 | particularly excellent |  | 
FC(F)(F)Oc1ccc(-c2nccs2)c2oc(N3CC4CCCC(C3)N4)nc12 [Example 30, 2-(3,9-Diazabicyclo[3.3.1]nonan-3-yl)-7-(thiazol-2-yl)-4-(trifluoromethoxy)benzo[d]oxazole] | < 1000 |  | ≤ 1 | < 100 | particularly excellent |  | 
CC(C)(O)c1cc(-c2nccs2)c2oc(N3CC4CCC(C3)N4)nc2c1C(F)(F)F [Example 177, 2-(2-(3,8-Diazabicyclo[3.2.1]octan-3-yl)-7-(thiazol-2-yl)-4-(trifluoromethyl)benzo[d]oxazol-5-yl)propan-2-ol] | < 1000 |  | 1 to 11 | < 100 | particularly excellent |  | 
COC(C)(C)c1cc(-c2nccs2)c2oc(N3CC4CC(C3)N4)nc2c1OC(F)(F)F [Example 199, 2-(3,6-Diazabicyclo[3.1.1]heptan-3-yl)-5-(2-methoxypropan-2-yl)-7-(thiazol-2-yl)-4-(trifluoromethoxy)benzo[d]oxazole] | < 1000 |  | 1 to 11 |  | particularly excellent | B (B: 40% or more and less than 70%) | < 100
FC(F)(F)Oc1c(Cl)cc(-c2nccs2)c2oc(N3CC4COCC(C3)N4)nc12 [Example 4, 7-(5-Chloro-7-(thiazol-2-yl)-4-(trifluoromethoxy)benzo[d]oxazol-2-yl)-3-oxa-7,9-diazabicyclo[3.3.1]nonane] | < 1000 |  | 1 to 11 | < 100 | particularly excellent |  | 
OC(c1ccc(-c2nccs2)c2oc(N3CC4CC(C3)N4)nc12)C(F)(F)F (centres unmarked) [Example 120, 1-(2-(3,6-Diazabicyclo[3.1.1]heptan-3-yl)-7-(thiazol-2-yl)benzo[d]oxazol-4-yl)-2,2,2-trifluoroethan-1-ol] | < 1000 |  | 1 to 11 | < 100 | particularly excellent | B (B: 40% or more and less than 70%) | 
COc1ccc(-c2nccs2)c2oc(N3CC4CCC(C3)N4)nc12 [Example 75, 2-(3,8-Diazabicyclo[3.2.1]octan-3-yl)-4-methoxy-7-(thiazol-2-yl)benzo[d]oxazole] | < 1000 |  | 1 to 11 | < 100 | particularly excellent |  | 
CC(O)c1cc(-c2nccs2)c2oc(N3CC4CC(C3)N4)nc2c1OC(F)(F)F (centres unmarked) [Example 203, 1-(2-(3,6-Diazabicyclo[3.1.1]heptan-3-yl)-7-(thiazol-2-yl)-4-(trifluoromethoxy)benzo[d]oxazol-5-yl)ethan-1-ol] | < 1000 |  | 1 to 11 |  | particularly excellent | B (B: 40% or more and less than 70%) | < 100
CC(O)(c1ccc(-c2nccs2)c2oc(N3CC4CC(C3)N4)nc12)C(F)F (centres unmarked) [Example 296, 2-(2-(3,6-Diazabicyclo[3.1.1]heptan-3-yl)-7-(thiazol-2-yl)benzo[d]oxazol-4-yl)-1,1-difluoropropan-2-ol] |  |  | 1 to 11 |  | particularly excellent | A (A: 70% or more) | < 100
CC(=O)c1cc(-c2nccs2)c2oc(N3CC4CC(C3)N4)nc2c1OC(F)(F)F [Example 212, 1-(2-(3,6-Diazabicyclo[3.1.1]heptan-3-yl)-7-(thiazol-2-yl)-4-(trifluoromethoxy)benzo[d]oxazol-5-yl)ethan-1-one] |  |  | ≤ 1 |  | particularly excellent | B (B: 40% or more and less than 70%) | < 100
Cc1ccc(-c2nccs2)c2oc(N3CC4CCC(C3)N4)nc12 [Example 25, 2-(3,8-Diazabicyclo[3.2.1]octan-3-yl)-4-methyl-7-(thiazol-2-yl)benzo[d]oxazole] | < 1000 |  | ≤ 1 | < 100 | particularly excellent |  | 
FC(F)(F)c1ccc(-c2nccs2)c2oc(N3CC4CC(C3)N4)nc12 [Example 32, 2-(3,6-Diazabicyclo[3.1.1]heptan-3-yl)-7-(thiazol-2-yl)-4-(trifluoromethyl)benzo[d]oxazole] | < 1000 |  | 1 to 11 | < 100 | particularly excellent |  | 
COC(c1cc(-c2nccs2)c2oc(N3CC4CC(C3)N4)nc2c1OC(F)(F)F)C(F)F (centres unmarked) [Example 208, 2-(3,6-Diazabicyclo[3.1.1]heptan-3-yl)-5-(2,2-difluoro-1-methoxyethyl)-7-(thiazol-2-yl)-4-(trifluoromethoxy)benzo[d]oxazole] |  |  | 1 to 11 |  | particularly excellent | B (B: 40% or more and less than 70%) | < 100
